Patent US20250302815A1, “PROTEIN TYROSINE PHOSPHATASE TARGETING LIGANDS” (CALICO LIFE SCIENCES LLC, priority 2021, published 2025)

What was measured:
[1] = target: T1, PTPN2 (HiBIT-PTPN2 in 293T.109 cells) (Homo sapiens, UniProt P17706); assay: HiBiT Degradation 293T.109 PTPN2 (Nano-Glo HiBiT Lytic Assay); format: cell-based; conditions: 24.0 hours
T1 construct: expressed in transfected cells; host or cells: 293T.109 (293T WT from ATCC)
T1 sequence (P17706 1-415): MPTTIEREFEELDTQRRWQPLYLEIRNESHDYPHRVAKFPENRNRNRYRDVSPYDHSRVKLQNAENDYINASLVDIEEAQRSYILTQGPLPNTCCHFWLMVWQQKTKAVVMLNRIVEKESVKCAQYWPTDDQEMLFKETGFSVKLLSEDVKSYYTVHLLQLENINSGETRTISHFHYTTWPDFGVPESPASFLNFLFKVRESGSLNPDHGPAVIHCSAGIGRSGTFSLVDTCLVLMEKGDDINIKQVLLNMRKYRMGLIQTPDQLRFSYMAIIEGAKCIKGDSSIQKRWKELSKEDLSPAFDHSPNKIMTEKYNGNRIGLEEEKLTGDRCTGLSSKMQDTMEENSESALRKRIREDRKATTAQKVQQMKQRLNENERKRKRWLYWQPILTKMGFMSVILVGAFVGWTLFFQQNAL
Method in brief: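 Degradation read-out: lytic HiBiT luminescence after 24 h treatment (37 °C, 5% CO2) of 5000 293T cells per well expressing HiBiT-fused PTPN2 from an N-terminal tag. Dosing was 11 points, half-log steps down from 10 μM, in duplicate; vehicle-treated and no-reagent wells served as controls.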

PTPN2 (B16F10.4 cells) = target: T2, PTPN2 (B16F10.4 cells) (Mus musculus, UniProt Q06180); assay: HiBiT Degradation B16F10.4 PTPN2; format: cell-based; conditions: 24.0 hours
T2 construct: HiBiT; host or cells: B16F10.4
T2 sequence (Q06180 1-406): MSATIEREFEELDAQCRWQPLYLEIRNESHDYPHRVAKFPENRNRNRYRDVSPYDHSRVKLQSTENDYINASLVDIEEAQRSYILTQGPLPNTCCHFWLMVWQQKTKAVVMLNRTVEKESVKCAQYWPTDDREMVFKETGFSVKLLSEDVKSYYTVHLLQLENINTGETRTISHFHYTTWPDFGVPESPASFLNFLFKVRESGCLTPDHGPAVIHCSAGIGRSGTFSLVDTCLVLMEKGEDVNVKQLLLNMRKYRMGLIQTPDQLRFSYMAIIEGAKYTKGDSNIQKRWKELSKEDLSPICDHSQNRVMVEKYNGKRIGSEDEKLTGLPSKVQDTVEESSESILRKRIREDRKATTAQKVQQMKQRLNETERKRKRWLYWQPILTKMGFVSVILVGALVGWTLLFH

Row | DC50 [1] [nM] | DC50 (PTPN2 (B16F10.4 cells)) [nM] | Compound
1 | 50 to 200 | ≥ 1000 | CN(C(=O)CCN1CCC(Nc2cccc3c2CN(C2CCC(=O)NC2=O)C3=O)CC1)c1cccc(CS(=O)(=O)N2CCC(Nc3cccc(-c4sc(C(=O)O)c(OCC(=O)O)c4Cl)c3)CC2(C)C)c1 (centres unmarked) [Example 71, 3-(carboxymethoxy)-4-chloro-5-(3-((1-((3-(3-(4-((2-(2,6-dioxopiperidin-3-yl)-1-oxoisoindolin-4-yl)amino)piperidin-1-yl)-N-methylpropanamido)benzyl)sulfonyl)-2,2-dimethylpiperidin-4-yl)amino)phenyl)thiophene-2-carboxylic acid]
2 | 50 to 200 | < 50 | Cn1c(=O)n(C2CCC(=O)NC2=O)c2ccc(C3CCN(C(=O)Nc4cccc(CS(=O)(=O)N5CC[C@H](Nc6cccc(-c7sc(C(=O)O)c(OCC(=O)O)c7Cl)c6)CC5(C)C)c4F)CC3)cc21 (stereo partly drawn) [Example 125, 3-(carboxymethoxy)-4-chloro-5-[3-[[(4S)-1-[[3-[[4-[1-(2,6-dioxo-3-piperidyl)-3-methyl-2-oxo-benzimidazol-5-yl]piperidine-1-carbonyl]amino]-2-fluoro-phenyl]methylsulfonyl]-2,2-dimethyl-4-piperidyl]amino]phenyl]thiophene-2-carboxylic acid]
3 | 50 to 200 | < 50 | CC1(C)C[C@@H](Nc2cccc(-c3sc(C(=O)O)c(OCC(=O)O)c3Cl)c2)CCN1S(=O)(=O)Cc1ccc(F)c(NC(=O)N2CCC(c3ccc4c5c(cccc35)C(=O)N4C3CCC(=O)NC3=O)CC2)c1 (some centres unmarked) [Example 126]
4 | 50 to 200 | 50 to 200 | Cn1nc(C2CCC(=O)NC2=O)c2ccc(C3CCN(C(=O)Nc4cccc(CS(=O)(=O)N5CC[C@H](Nc6cccc(-c7sc(C(=O)O)c(OCC(=O)O)c7Cl)c6)CC5(C)C)c4)CC3)cc21 (stereo partly drawn) [Example 143, 3-(carboxymethoxy)-4-chloro-5-[3-[[(4S)-1-[[3-[[4-[3-(2,6-dioxo-3-piperidyl)-1-methyl-indazol-6-yl]piperidine-1-carbonyl]amino]phenyl]methylsulfonyl]-2,2-dimethyl-4-piperidyl]amino]phenyl]thiophene-2-carboxylic acid]
5 | 50 to 200 | 50 to 200 | Cn1c(=O)n(C2CCC(=O)NC2=O)c2ccc(C3CCN(C(=O)Nc4cccc(CS(=O)(=O)N5CC[C@H](Nc6cccc(-c7sc(C(=O)O)c(OCC(=O)O)c7Cl)c6)CC5(C)C)c4)CC3)c(F)c21 (stereo partly drawn) [Example 152, 3-(carboxymethoxy)-4-chloro-5-[3-[[(4S)-1-[[3-[[4-[1-(2,6-dioxo-3-piperidyl)-4-fluoro-3-methyl-2-oxo-benzimidazol-5-yl]piperidine-1-carbonyl]amino]phenyl]methylsulfonyl]-2,2-dimethyl-4-piperidyl]amino]phenyl]thiophene-2-carboxylic acid]
6 | < 50 | < 50 | Cn1c(=O)n(C2CCC(=O)NC2=O)c2ccc(Cc3ccc(CC(=O)Nc4cccc(CS(=O)(=O)N5CC[C@H](Nc6cccc(-c7sc(C(=O)O)c(OCC(=O)O)c7Cl)c6)CC5(C)C)c4)cc3)cc21 (stereo partly drawn) [Example 236, 3-(carboxymethoxy)-4-chloro-5-[3-[[(4S)-1-[[3-[[2-[4-[[1-(2,6-dioxo-3-piperidyl)-3-methyl-2-oxo-benzimidazol-5-yl]methyl]phenyl]acetyl]amino]phenyl]methylsulfonyl]-2,2-dimethyl-4-piperidyl]amino]phenyl]thiophene-2-carboxylic acid]
7 | 200 to 1000 | ≥ 1000 | O=C(O)COc1c(C(=O)O)sc(-c2cccc(NC3CCN(S(=O)(=O)Cc4cccc(NC(=O)CCn5cc(CNc6cccc7c6CN(C6CCC(=O)NC6=O)C7=O)cn5)c4)CC3)c2)c1Cl (centres unmarked) [Example 38, 3-(carboxymethoxy)-4-chloro-5-[3-[[1-[[3-[3-[4-[[[2-(2,6-dioxo-3-piperidyl)-1-oxo-isoindolin-4-yl]amino]methyl]pyrazol-1-yl]propanoylamino]phenyl]methylsulfonyl]-4-piperidyl]amino]phenyl]thiophene-2-carboxylic acid]
8 | 50 to 200 | 200 to 1000 | Cn1c(=O)n(C2CCC(=O)NC2=O)c2ccc(C3CCN(C(=O)Nc4cccc(CS(=O)(=O)N5CCC(Nc6cccc(-c7sc(C(=O)O)c(OCC(=O)O)c7Cl)c6)CC5(C)C)c4F)CC3)cc21 (centres unmarked) [Example 115, 3-(carboxymethoxy)-4-chloro-5-[3-[[1-[[3-[[4-[1-(2,6-dioxo-3-piperidyl)-3-methyl-2-oxo-benzimidazol-5-yl]piperidine-1-carbonyl]amino]-2-fluoro-phenyl]methylsulfonyl]-2,2-dimethyl-4-piperidyl]amino]phenyl]thiophene-2-carboxylic acid]
9 | 200 to 1000 | < 50 | CC1(C)C[C@@H](Oc2cccc(-c3sc(C(=O)O)c(OCC(=O)O)c3Cl)c2)CCN1S(=O)(=O)Cc1cccc(NC(=O)N2CCC(c3ccc4c5c(cccc35)C(=O)N4C3CCC(=O)NC3=O)CC2)c1 (stereo partly drawn) [Example 228, 3-(carboxymethoxy)-4-chloro-5-(3-(((4S)-1-((3-(4-(1-(2,6-dioxopiperidin-3-yl)-2-oxo-1,2-dihydrobenzo[cd]indol-6-yl)piperidine-1-carboxamido)benzyl)sulfonyl)-2,2-dimethylpiperidin-4-yl)oxy)phenyl)thiophene-2-carboxylic acid]
10 | 200 to 1000 | 50 to 200 | Cn1c(=O)n(C2CCC(=O)NC2=O)c2ccc(-c3cnn(CC(=O)Nc4cccc(CS(=O)(=O)N5CC[C@H](Nc6cccc(-c7sc(C(=O)O)c(OCC(=O)O)c7Cl)c6)CC5(C)C)c4)c3)cc21 (stereo partly drawn) [Example 194, 3-(carboxymethoxy)-4-chloro-5-[3-[[(4S)-1-[[3-[[2-[4-[1-(2,6-dioxo-3-piperidyl)-3-methyl-2-oxo-benzimidazol-5-yl]pyrazol-1-yl]acetyl]amino]phenyl]methylsulfonyl]-2,2-dimethyl-4-piperidyl]amino]phenyl]thiophene-2-carboxylic acid]
11 | 50 to 200 | 200 to 1000 | CC1(C)C[C@@H](Nc2cccc(-c3sc(C(=O)O)c(OCC(=O)O)c3Cl)c2)CCN1S(=O)(=O)Cc1cccc(NC(=O)C2CCN(C(=O)COc3cccc4c3CN(C3CCC(=O)NC3=O)C4=O)CC2)c1 (stereo partly drawn) [Example 63, 3-(carboxymethoxy)-4-chloro-5-(3-(((4S)-1-((3-(1-(2-((2-(2,6-dioxopiperidin-3-yl)-1-oxoisoindolin-4-yl)oxy)acetyl)piperidine-4-carboxamido)benzyl)sulfonyl)-2,2-dimethylpiperidin-4-yl)amino)phenyl)thiophene-2-carboxylic acid]
12 | < 50 | 50 to 200 | Cn1c(=O)n(C2CCC(=O)NC2=O)c2ccc([C@H]3CC[C@@H](C(=O)Nc4cccc(CS(=O)(=O)N5CC[C@H](Nc6cccc(-c7sc(C(=O)O)c(OCC(=O)O)c7Cl)c6)CC5(C)C)c4)CC3)cc21 (stereo partly drawn) [Example 139, 3-(carboxymethoxy)-4-chloro-5-(3-(((4S)-1-((3-((1s,4R)-4-(1-(2,6-dioxopiperidin-3-yl)-3-methyl-2-oxo-2,3-dihydro-1H-benzo[d]imidazol-5-yl)cyclohexane-1-carboxamido)benzyl)sulfonyl)-2,2-dimethylpiperidin-4-yl)amino)phenyl)thiophene-2-carboxylic acid]
13 | 50 to 200 | 50 to 200 | Cn1c(=O)n(C2CCC(=O)NC2=O)c2ccc(C3CCN(C(=O)Nc4cccc(CS(=O)(=O)N5CCC(Nc6cccc(-c7sc(C(=O)O)c(OCC(=O)O)c7Cl)c6)CC5)c4)CC3)cc21 (centres unmarked) [Example 51, 3-(carboxymethoxy)-4-chloro-5-[3-[[1-[[3-[[4-[1-(2,6-dioxo-3-piperidyl)-3-methyl-2-oxo-benzimidazol-5-yl]piperidine-1-carbonyl]amino]phenyl]methylsulfonyl]-4-piperidyl]amino]phenyl]thiophene-2-carboxylic acid]
14 | 50 to 200 | 50 to 200 | C[C@H]1CN(C(=O)Nc2cccc(CS(=O)(=O)N3CC[C@H](Nc4cccc(-c5sc(C(=O)O)c(OCC(=O)O)c5Cl)c4)CC3(C)C)c2)CCN1c1ccc2c(c1)n(C)c(=O)n2C1CCC(=O)NC1=O (some centres unmarked) [Example 210]
15 | 50 to 200 | ≥ 1000 | CC1(C)C[C@H](Nc2cccc(-c3sc(C(=O)O)c(OCC(=O)O)c3Cl)c2F)CCN1S(=O)(=O)Cc1ccc(F)c(NC(=O)C2CN(C(=O)CNc3cccc4c3CN(C3CCC(=O)NC3=O)C4=O)C2)c1 (some centres unmarked) [Example 149]
16 | 50 to 200 | 50 to 200 | CC(C)n1c(=O)n([C@@H]2CCC(=O)NC2=O)c2ccc(C3CCN(C(=O)Nc4cccc(CS(=O)(=O)N5CC[C@H](Nc6cccc(-c7sc(C(=O)O)c(OCC(=O)O)c7Cl)c6)CC5(C)C)c4)CC3)cc21 (single isomer, unassigned) [Example 87a]
